Reference: the NIST ThermoML archive (doi:10.1021/je050010l)

Assay: xn = mol fraction of the nth substance listed
Conditions: 100.8 kPa, Liquid; for viscosity: Capillary tube (Ostwald / Ubbelohde) method

CC(C)CC(C)(C)C [2,2,4-trimethylpentane] + CCO
Conditions	mass density, 288.15 K [kg/m3]	mass density, 298.15 K [kg/m3]	mass density, 308.15 K [kg/m3]	viscosity, 298.15 K [mPa·s]	viscosity, 308.15 K [mPa·s]
x2 = 0	–	687.74	679.41	0.48	0.432
x2 = 0.0502	–	688.84	680.36	0.473	0.424
x2 = 0.1	–	690.33	681.76	0.476	0.426
x2 = 0.15	–	692.11	683.52	0.48	0.429
x2 = 0.2	–	694.07	685.43	0.487	0.434
x2 = 0.25	–	696.21	687.56	0.497	0.441
x2 = 0.3	–	698.57	689.88	0.51	0.451
x2 = 0.35	–	701.17	692.45	0.526	0.462
x2 = 0.4	–	704.03	695.3	0.543	0.476
x2 = 0.45	–	707.2	698.44	0.565	0.492
x2 = 0.5	719.31	710.68	701.91	0.588	0.51
x2 = 0.55	723.22	714.59	705.8	0.615	0.531
x2 = 0.6	727.55	718.9	710.11	0.645	0.554
x2 = 0.65	732.37	723.73	714.93	0.677	0.58
x2 = 0.7	737.81	729.14	720.34	0.715	0.609
x2 = 0.75	743.99	735.34	726.54	0.755	0.642
x2 = 0.8	751.11	742.37	733.58	0.801	0.678
x2 = 0.85	759.27	750.54	741.75	0.854	0.72
x2 = 0.9	768.81	760.17	751.44	0.915	0.769
x2 = 0.95	780.26	771.59	762.84	0.991	0.828
